Source: patent US8546537B2, “Streptavidin having low immunogenicity and use thereof” (The University of Tokyo, priority 2009, dated 2013)
pKd: −log10 of the molar value.

Experiments:
[1] = Kinetics analysis of interaction between streptavidin protein and biotin using Biacore biosensor; type: binding; settings: for pKd: Biacore 3000, obtained from kd/ka, read-out: Dissociation constant Kd
Protocol: As a ligand (a substance to be attached to a sensor chip) used for a Biacore (registered trademark) biosensor, an anti-mouse IgG antibody (manufactured by GE Healthcare Biosciences) was used. On the other hand, as analytes (substances to be supplied to the flow channel system), a biotinylated mouse antibody and various types of mutant streptavidins were prepared, and intermolecular interaction was then analyzed using Biacore (registered trademark) 3000 (a biosensor based on the principle of surface plasmon resonance; manufactured by GE Healthcare Biosciences). The anti-mouse IgG antibody was immobilized on all of the flow cells of a CM5 sensor chip according to an amine coupling method. The amount of the antibody immobilized on each flow cell was 8000 RU. Subsequently, as references, non-biotinylated mouse antibodies were captured onto Flow Cells 1 and 3, and biotinylated mouse antibodies were captured onto Flow Cells 2 and 4. Various types of streptavidins were loaded in a running buffer (HBS-EP; manufactured by GE Healthcare Biosciences) on Flow Cells 1 and 2, or 3 and 4, at a flow rate of 20 μl/min for 2 minutes. Thereafter, dissociation of each sample was monitored for 7 minutes. Thereafter, a reproduction operation was carried out using a 10 mM glycine-HCl buffer (pH 1.7) (manufactured by GE Healthcare Biosciences), and repeat measurement was then carried out. Using the analysis software BIAevaluation ver. 4.1, a reaction kinetics analysis was performed on a 1:1 binding model based on the obtained sensorgram, so as to calculate an association rate constant (ka) and a dissociation rate constant (kd). A dissociation constant (Kd) was obtained from kd/ka.
The results of the kinetics analysis of the intermolecular interaction of a recombinant streptavidin and a biotin, which was carried out using Biacore (registered trademark) 3000 (a biosensor based on the principle of surface plasmon resonance; manufactured by GE Healthcare Biosciences), are as shown in Table 2.

[2] = background art; cited from earlier work
[3] = Biacore 3000, biotinylated mouse antibody captured, 1:1 binding model

Row | Substance | Dissociation rate constant kd [1, 3] | pKd [1] | isoelectric point [2] | Association rate constant ka [1, 3]
1 | mcSA_W120A: streptavidin mutant named W120A in Table 2; not described further [reference compound] | 7.49 × 10^−4 S^−1 | 8.45 |  | 
2 | Avidin: basic glycoprotein derived from albumen |  |  | exceeds 10 | 
3 | cSA_WT: wild-type (native) core streptavidin, amino acid sequence SEQ ID NO: 2 [reference compound] | 6.32 × 10^−5 S^−1 | 9.65 | around the neutral range | 2.81 × 10^5 M^−1 S^−1
